According to patent US12134788B2, “Engineered prephenate dehydrogenases and arogenate dehydrogenases and methods of using the same” (Wisconsin Alumni Research Foundation, priority 2017, dated 2024):

Columns and labels:
[1] = target: T1, Medicago truncatula MtPDH variant C220D, SEQ ID NO: 1 (Medicago truncatula, UniProt A0A0A0R205, C220D); test: ADH and PDH assay: steady-state kinetics and Tyr inhibition, MtPDH C220D; assay type: biochemical
T1 sequence (A0A0A0R205 1-268 C220D): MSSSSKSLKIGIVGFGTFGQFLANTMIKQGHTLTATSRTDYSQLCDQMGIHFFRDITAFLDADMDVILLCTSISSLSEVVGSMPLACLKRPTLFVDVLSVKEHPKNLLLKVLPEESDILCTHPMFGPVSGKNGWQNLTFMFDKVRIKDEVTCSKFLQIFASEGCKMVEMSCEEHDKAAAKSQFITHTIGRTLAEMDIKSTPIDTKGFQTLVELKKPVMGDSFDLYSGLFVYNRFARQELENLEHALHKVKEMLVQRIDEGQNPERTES
Protocol: (§1) Kinetic parameters of purified recombinant proteins were determined from assays conducted at varying arogenate (19.5 μM-5 mM) and prephenate concentration (23.4 μM-6 mM). Standard assay conditions were 25 mM HEPES pH 7.6, 50 mM KCl and 10% (v/v) ethylene glycol, and 0.5 mM NADP^+ with varied substrate, concentrations. Reactions were initiated by addition of enzyme and incubated at 37° C. monitored every 10-15 seconds at […] using a microplate reader (Tecan Genios). Kinetic parameters were determined by fitting initial velocity data to the Michaelis-Menten equation using the Origin software (OriginLab).
(§2) Arogenate was prepared by enzymatic conversion of prephenate (Sigma-Aldrich) as previously reported^56. For Tyr inhibition assays, Tyr was dissolved in a slightly basic solution (0.025 N NaOH) due to solubility issues, thus the concentration of lysis buffer was increased to 500 mM HEPES final concentration to buffer against the changes by addition of Tyr in the reaction. Reactions containing varying amounts of Tyr (10 μM-8 mM) with 0.5 mM NADP^+ and either 1 mM arogenate or 0.8 mM prephenate were monitored as above.

[2] = target: T2, GmncADH (Gm14g05990), soybean (Glycine max) noncanonical arogenate dehydrogenase, wild type (Glycine max, UniProt I1M7P5); test: ADH and PDH assay: steady-state kinetics and Tyr inhibition, GmncADH wild type; assay type: biochemical
T2 construct: wild type
T2 sequence (I1M7P5 1-266): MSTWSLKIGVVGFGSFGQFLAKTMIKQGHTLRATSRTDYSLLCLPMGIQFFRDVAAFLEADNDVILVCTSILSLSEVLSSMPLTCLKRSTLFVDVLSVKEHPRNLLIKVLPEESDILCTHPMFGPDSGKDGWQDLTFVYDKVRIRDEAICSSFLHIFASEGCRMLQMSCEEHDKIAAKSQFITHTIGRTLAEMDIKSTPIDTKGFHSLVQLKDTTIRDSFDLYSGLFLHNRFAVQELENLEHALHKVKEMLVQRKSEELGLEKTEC
Protocol: as §1, §2

[3] = target: AtADH2 (At1g15710), Arabidopsis thaliana canonical arogenate dehydrogenase, wild type (Arabidopsis thaliana, UniProt Q9LMR3); test: Tyr inhibition of AtADH2 wild type; assay type: biochemical; conditions: ADH activity, 0-8 mM L-Tyr
Sequence of AtADH2 (At1g15710), Arabidopsis thaliana canonical arogenate dehydrogenase, wild type (Q9LMR3 37-358): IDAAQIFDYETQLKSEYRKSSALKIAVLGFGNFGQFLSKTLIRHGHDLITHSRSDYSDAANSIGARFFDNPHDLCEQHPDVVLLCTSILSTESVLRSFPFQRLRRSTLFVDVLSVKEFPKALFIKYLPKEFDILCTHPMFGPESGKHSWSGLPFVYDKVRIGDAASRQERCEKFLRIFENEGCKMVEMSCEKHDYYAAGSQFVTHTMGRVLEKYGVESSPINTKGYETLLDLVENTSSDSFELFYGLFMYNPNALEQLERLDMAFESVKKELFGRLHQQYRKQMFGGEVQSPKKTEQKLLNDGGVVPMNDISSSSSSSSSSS
Protocol: as §1, §2

[4] = tested on: SynADH, Synechocystis sp. PCC 6803 arogenate dehydrogenase; conditions: cited from earlier work
[5] = target: T3, Medicago truncatula MtncADH variant D220C, SEQ ID NO: 10 (Medicago truncatula, UniProt A0A217FAR3, D220C); test: ADH and PDH assay: steady-state kinetics and Tyr inhibition, MtncADH D220C; assay type: biochemical
T3 construct: D220C by site-directed mutagenesis
T3 sequence (A0A217FAR3 1-266 D220C): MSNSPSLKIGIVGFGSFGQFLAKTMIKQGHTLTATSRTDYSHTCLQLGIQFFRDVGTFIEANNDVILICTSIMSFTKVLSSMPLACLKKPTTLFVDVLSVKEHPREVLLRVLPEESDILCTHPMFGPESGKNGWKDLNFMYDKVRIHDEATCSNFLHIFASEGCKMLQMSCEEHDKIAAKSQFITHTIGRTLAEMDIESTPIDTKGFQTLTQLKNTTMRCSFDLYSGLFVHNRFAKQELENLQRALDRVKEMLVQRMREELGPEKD
Protocol: as §1, §2

N[C@@H](Cc1ccc(O)cc1)C(=O)O [Tyr, L-Tyrosine]
IC50 [1]: 8.2 ± 0.9 mM
IC50 [2]: 15.5 ± 0.8 mM
IC50 (Tyr), in words ([2]; sensitivity to Tyr): in the mM range
IC50 [3]: 38 µM
Tyr sensitivity [4]: Tyr insensitive
IC50 [5]: 7.7 ± 1.5 mM
sensitivity to Tyr inhibition ([5]; versus wild-type, ADH activity, 0-8 mM Tyr): significantly less sensitive to Tyr inhibition
